Data as given in patent publication US7579504B2, “ABCA1 elevating compounds” (Gilead Sciences, Inc., priority 2005, dated 2009).

Each molecule was assayed on ABCA1 mRNA (assay: ABCA1 mRNA induction in THP-1 cells, QuantiGene branched DNA assay). Settings: Homo sapiens, 18-20 hours, read-out: ABCA1 Induction Fold Increase over DMSO Vehicle.
Assay type: cell-based
Description: Modulation of expression of ABCA1 mRNA levels by the compounds of the invention was determined in the following assays.
Induction of ABC1 in THP-1 cells, was measured using QuantiGene® branched DNA assay as per manufacturer's instructions. Cultures of THP-1 were grown to subconfluence in DMEM/10% FBS before replacement with DMEM/BSA and 10 and 3 μM concentrations of the test compounds in DMSO for 18-20 hours. After treatment of cells with compounds, the cells were lysed with lysis buffer at 37° C. for 20 minutes. The cell lysate and ABCA1 specific probe (Genospectra, Inc., Fremont, Calif.) mix were added to the 96 well capture plate and hybridized at 53° C. for 16-18 hours. The signal was amplified using the amplifier and label probes provided with the QuantiGene® assay followed by addition of a luminescent alkaline phosphatase substrate, dioxitane. Luminescence was quantified in Victor V plate reader.
Step 1 • Cells are lysed to release mRNA in the presence of target probes. Target mRNA from lysed cells was then captured by hybridization and transferred to the Capture Plate.
Step 2 • Signal amplification was performed by hybridization of the bDNA Amplifier and Label Probe.
Step 3 • Addition of chemiluminescence substrate yielded a QuantiGene® signal proportional to the amount of mRNA present in the sample.
Table 1 presents the relative fold increase in ABCA1 expression over DMSO for compounds of the invention when tested at a concentration of 10 μM.
With `Cc1ccc(CNC(=O)[C@H]2CC[C@H](CN(Cc3ccccc3C)S(=O)(=O)c3ccccc3)CC2)cc1` [Compound 1, N-[(4-methylphenyl)methyl][4-({[(2-methylphenyl)methyl](phenylsulfonyl)amino}methyl)cyclohexyl]carboxamide] the fold induction at 10 µM was 4.2.
With `Cc1ccc(CNC(=O)C2CCC(CN(Cc3cccc(F)c3F)S(=O)(=O)c3ccccc3)CC2)cc1` (stereo not drawn) [Compound 2, [4-({[(2,3-difluorophenyl)methyl](phenylsulfonyl)amino}methyl)cyclohexyl]-N-[(4-methylphenyl)methyl]carboxamide] the fold induction at 10 µM was 6.3.
For `Cc1ccc(CNC(=O)C2CCC(CN(Cc3ccc(F)cc3)S(=O)(=O)c3ccccc3)CC2)cc1` (stereo not drawn) [Compound 3, [4-({[(4-fluorophenyl)methyl](phenylsulfonyl)amino}methyl)cyclohexyl]-N-[(4-methylphenyl)methyl]carboxamide], the fold induction at 10 µM was 4.8.
Work on `Cc1ccc(CNC(=O)C2CCC(CN(Cc3ccccc3)S(=O)(=O)c3ccccc3)CC2)cc1` (stereo not drawn) [Compound 4, N-[(4-methylphenyl)methyl](4-{[benzyl(phenylsulfonyl)amino]methyl}cyclohexyl)carboxamide] yielded a fold induction at 10 µM of 3.8.
In the case of `Cc1ccc(CNC(=O)C2CCC(CN([C@H](C)c3ccccc3)S(=O)(=O)c3ccccc3)CC2)cc1` (stereo partly drawn) [Compound 5, (4-{[((1R)-1-phenylethyl)(phenylsulfonyl)amino]methyl}cyclohexyl)-N-[(4-methylphenyl)methyl]carboxamide], the fold induction at 10 µM is reported as 6.4.
With `Cc1ccc(CNC(=O)[C@H]2CC[C@H](CN([C@@H](C)c3ccccc3)S(=O)(=O)c3ccccc3)CC2)cc1` [Compound 6, (4-{[((1S)-1-phenylethyl)(phenylsulfonyl)amino]methyl}cyclohexyl)-N-[(4-methylphenyl)methyl]carboxamide] the fold induction at 10 µM was 3.2.
`COc1cccc(S(=O)(=O)N(Cc2ccccc2)CC2CCC(C(=O)NCc3ccc(C)cc3)CC2)c1` (stereo not drawn) [Compound 7, [4-({[(3-methoxyphenyl)sulfonyl]benzylamino}methyl)cyclohexyl]-N-[(4-methylphenyl)methyl]carboxamide] gave a fold induction at 10 µM of 5.4.
In the case of `CC(=O)Nc1ccc(S(=O)(=O)N(Cc2ccccc2)CC2CCC(C(=O)NCc3ccc(C)cc3)CC2)cc1` (stereo not drawn) [Compound 8, N-[4-({[(4-{N-[(4-methylphenyl)methyl]carbamoyl}cyclohexyl)methyl]benzylamino}sulfonyl)phenyl]acetamide], the fold induction at 10 µM is reported as 3.1.
Work on `Cc1ccc(CNC(=O)C2CCC(CN(Cc3ccccc3)S(=O)(=O)c3ccccc3C)CC2)cc1` (stereo not drawn) [Compound 9, N-[(4-methylphenyl)methyl][4-({[(2-methylphenyl)sulfonyl]benzylamino}methyl)cyclohexyl]carboxamide] yielded a fold induction at 10 µM of 4.9.
`Cc1ccc(CNC(=O)C2CCC(CN(Cc3ccccc3)S(=O)(=O)c3ccc(F)cc3F)CC2)cc1` (stereo not drawn) [Compound 10, [4-({[(2,4-difluorophenyl)sulfonyl]benzylamino}methyl)cyclohexyl]-N-[(4-methylphenyl)methyl]carboxamide] showed a fold induction at 10 µM of 2.2.
For `Cc1ccc(CNC(=O)C2CCC(CN(Cc3ccccc3)S(=O)(=O)c3ccc(Cl)cc3F)CC2)cc1` (stereo not drawn) [Compound 11, [4-({[(4-chloro-2-fluorophenyl)sulfonyl]benzylamino}methyl)cyclohexyl]-N-[(4-methylphenyl)methyl]carboxamide], the fold induction at 10 µM was 1.9.
`Cc1ccc(CNC(=O)C2CCC(CN(Cc3ccccc3)S(=O)(=O)c3ccc(F)c(F)c3)CC2)cc1` (stereo not drawn) [Compound 12, [4-({[(3,4-difluorophenyl)sulfonyl]benzylamino}methyl)cyclohexyl]-N-[(4-methylphenyl)methyl]carboxamide] showed a fold induction at 10 µM of 2.6.
`Cc1ccc(CNC(=O)C2CCC(CN(Cc3ccccc3)S(=O)(=O)c3ccc(C(C)(C)C)cc3)CC2)cc1` (stereo not drawn) [Compound 13, {4-[({[4-(tert-butyl)phenyl]sulfonyl}benzylamino)methyl]cyclohexyl}-N-[(4-methylphenyl)methyl]carboxamide] gave a fold induction at 10 µM of 2.7.
`Cc1ccc(CNC(=O)C2CCC(CN(Cc3ccccc3)S(=O)(=O)c3ccc(Cl)cc3Cl)CC2)cc1` (stereo not drawn) [Compound 14, [4-({[(2,4-dichlorophenyl)sulfonyl]benzylamino}methyl)cyclohexyl]-N-[(4-methylphenyl)methyl]carboxamide] showed a fold induction at 10 µM of 3.5.
`Cc1ccc(CNC(=O)C2CCC(CN(Cc3ccccc3)S(=O)(=O)c3cccs3)CC2)cc1` (stereo not drawn) [Compound 15, N-[(4-methylphenyl)methyl](4-{[benzyl(2-thienylsulfonyl)amino]methyl}cyclohexyl)carboxamide] was tested, and the fold induction at 10 µM was 4.3.
For `Cc1ccc(CNC(=O)C2CCC(CN(Cc3ccccc3)S(=O)(=O)c3ccc(F)c(F)c3F)CC2)cc1` (stereo not drawn) [Compound 16, N-[(4-methylphenyl)methyl][4-({benzyl[(2,3,4-trifluorophenyl)sulfonyl]amino}methyl)cyclohexyl]carboxamide], the fold induction at 10 µM was 1.9.
Work on `Cc1ccc(CNC(=O)C2CCC(CN(Cc3ccccc3)S(=O)(=O)c3cc(F)cc(F)c3)CC2)cc1` (stereo not drawn) [Compound 17, [4-({[(3,5-difluorophenyl)sulfonyl]benzylamino}methyl)cyclohexyl]-N-[(4-methylphenyl)methyl]carboxamide] yielded a fold induction at 10 µM of 4.5.
`COc1ccc(S(=O)(=O)N(Cc2ccccc2)CC2CCC(C(=O)NCc3ccc(C)cc3)CC2)cc1OC` (stereo not drawn) [Compound 18, [4-({[(3,4-dimethoxyphenyl)sulfonyl]benzylamino}methyl)cyclohexyl]-N-[(4-methylphenyl)methyl]carboxamide] showed a fold induction at 10 µM of 1.6.
With `Cc1ccc(CNC(=O)C2CCC(CN(Cc3ccccc3)S(=O)(=O)c3cc(F)ccc3F)CC2)cc1` (stereo not drawn) [Compound 19, [4-({[(2,5-difluorophenyl)sulfonyl]benzylamino}methyl)cyclohexyl]-N-[(4-methylphenyl)methyl]carboxamide] the fold induction at 10 µM was 4.9.
`Cc1ccc(CNC(=O)C2CCC(CN(Cc3ccccc3)S(=O)(=O)c3cccc(Cl)c3)CC2)cc1` (stereo not drawn) [Compound 20, [4-({[(3-chlorophenyl)sulfonyl]benzylamino}methyl)cyclohexyl]-N-[(4-methylphenyl)methyl]carboxamide] gave a fold induction at 10 µM of 4.3.
For `Cc1ccc(CNC(=O)C2CCC(CN(Cc3ccccc3)S(=O)(=O)c3ccccc3F)CC2)cc1` (stereo not drawn) [Compound 21, [4-({[(2-fluorophenyl)sulfonyl]benzylamino}methyl)cyclohexyl]-N-[(4-methylphenyl)methyl]carboxamide], the fold induction at 10 µM was 4.4.
Molecule `Cc1ccc(CNC(=O)C2CCC(CN(Cc3ccccc3)S(=O)(=O)c3ccccc3Cl)CC2)cc1` (stereo not drawn) [Compound 22, [4-({[(2-chlorophenyl)sulfonyl]benzylamino}methyl)cyclohexyl]-N-[(4-methylphenyl)methyl]carboxamide] has a fold induction at 10 µM of 4.1.
For `Cc1ccc(CNC(=O)C2CCC(CN(Cc3ccccc3)S(=O)(=O)c3cc(C)cc(C)c3)CC2)cc1` (stereo not drawn) [Compound 23, [4-({[(3,5-dimethylphenyl)sulfonyl]benzylamino}methyl)cyclohexyl]-N-[(4-methylphenyl)methyl]carboxamide], the fold induction at 10 µM was 4.1.
Molecule `Cc1ccc(CNC(=O)C2CCC(CN(Cc3ccccc3)S(=O)(=O)c3cc(C(F)(F)F)cc(C(F)(F)F)c3)CC2)cc1` (stereo not drawn) [Compound 24, {4-[({[3,5-bis(trifluoromethyl)phenyl]sulfonyl}benzylamino)methyl]cyclohexyl}-N-[(4-methylphenyl)methyl]carboxamide] has a fold induction at 10 µM of 0.9.
With `Cc1ccc(CNC(=O)C2CCC(CN(Cc3ccccc3)S(=O)(=O)c3ccc(C)c(Cl)c3)CC2)cc1` (stereo not drawn) [Compound 25, [4-({[(3-chloro-4-methylphenyl)sulfonyl]benzylamino}methyl)cyclohexyl]-N-[(4-methylphenyl)methyl]carboxamide] the fold induction at 10 µM was 3.5.
`Cc1ccc(CNC(=O)C2CCC(CN(Cc3ccccc3)S(=O)(=O)c3cc(F)ccc3C)CC2)cc1` (stereo not drawn) [Compound 26, [4-({[(5-fluoro-2-methylphenyl)sulfonyl]benzylamino}methyl)cyclohexyl]-N-[(4-methylphenyl)methyl]carboxamide] showed a fold induction at 10 µM of 4.3.
Molecule `Cc1ccc(CNC(=O)C2CCC(CN(Cc3ccccc3)S(=O)(=O)c3cc(Cl)ccc3Cl)CC2)cc1` (stereo not drawn) [Compound 27, [4-({[(2,5-dichlorophenyl)sulfonyl]benzylamino}methyl)cyclohexyl]-N-[(4-methylphenyl)methyl]carboxamide] has a fold induction at 10 µM of 3.7.
Work on `Cc1ccc(CNC(=O)C2CCC(CN(Cc3ccccc3)S(=O)(=O)c3c(F)cccc3F)CC2)cc1` (stereo not drawn) [Compound 29, [4-({[(2,6-difluorophenyl)sulfonyl]benzylamino}methyl)cyclohexyl]-N-[(4-methylphenyl)methyl]carboxamide] yielded a fold induction at 10 µM of 6.9.
With `CC(=O)Nc1nc(C)c(S(=O)(=O)N(Cc2ccccc2)CC2CCC(C(=O)NCc3ccc(C)cc3)CC2)s1` (stereo not drawn) [Compound 30, N-[4-methyl-5-({[(4-{N-[(4-methylphenyl)methyl]carbamoyl}cyclohexyl)methyl]benzylamino}sulfonyl)-1,3-thiazol-2-yl]acetamide] the fold induction at 10 µM was 3.9.
`Cc1ccc(CNC(=O)C2CCC(CN(Cc3ccccc3)S(=O)(=O)c3cccc(F)c3)CC2)cc1` (stereo not drawn) [Compound 31, [4-({[(3-fluorophenyl)sulfonyl]benzylamino}methyl)cyclohexyl]-N-[(4-methylphenyl)methyl]carboxamide] gave a fold induction at 10 µM of 6.7.
